48 molecules from patent US11691951B2 (Curtana Pharmaceuticals, Inc., priority 2015, dated 2023) can be followed below.

SMILES strings stand for the structures.

This assay deals with GBM8 cells (human glioblastoma neurosphere cell culture). Put plainly: GBM8 viability assay (Cell Titer Glo luminescence, 3 days). To be noted: 72 h, 3 days incubation. The assay is classed as cell-based. On the procedure:
Example 283: GBM4 and GBM8 Viability Assay
Cell culture medium was prepared from a NSA proliferation kit (Neurocult) and NeuroCult supplements (Stemcell Tech Cat. #05751) and treated with 20 μL of 10 μg/mL rh EGF, 10 μL of 10 μg/mL rh bFGF and 10 μL of 0.2% Heparin. In this medium, human glioblastoma cells were cultured in ultra-low attachment tissue culture flasks until 1×10^6 cells ml was achieved (GBM4 and GBM8 are distinct neurosphere cell cultures derived from these human patient tissues). GBM4 and GBM8 cells were dissociated and 10 mL of media containing 4000 human glioblastoma cells per 90 uL were transferred to an ultra-low binding 96-well plate and incubated at 37° C. overnight. On the following day, 10 μL of a 1% DMSO solution of test compound in assay medium was added to wells containing the cell suspension and the mixture incubated at 37° C. for 3 days. At this time, the plate was removed from the incubator and allowed to reach room temperature. After about 30 minutes, 50 μL of Cell Titer Glo solution was added to each well and the plate shaken for 1 minute at low speed. After 10 minutes luminescence was recorded using a Tecan Safire2 reader.
Reduction in luminescence compared to DMSO only control wells was used to determine the percentage inhibition of cell growth. IC50s were calculated using the % inhibition of luminescence for serial dilutions of compounds fitted to a 4-parameter fit within the Prism (San Diego) curve fitting program.
In general terms: ATP-based viability assays read luminescence as a measure of living cells.

With `Cc1cc(NCCCCO)nc(NC(=O)Nc2cccc(C(F)(F)F)c2)n1` [Compound 181], the half-maximal inhibitory concentration (IC50) (in general, the midpoint of a concentration-inhibition curve) is < 1 µM.
Regarding `Cc1cc(NCCCN(C)C)nc(NC(=O)Nc2ccc3c(c2)OCCO3)n1` [Compound 291, 1-(2,3-dihydrobenzo[b][1,4]dioxin-6-yl)-3-(4-((3-(dimethylamino)propyl)amino)-6-methylpyrimidin-2-yl)urea], the IC50 is < 1 µM.
For `Cc1cc(NCC(F)(F)CO)nc(NC(=O)Nc2ccc(OC(F)(F)F)cc2)n1` [Compound 94], the concentration for half-maximal inhibition (IC50) is < 1 µM.
Take `Cc1cc(NCCCN)nc(NC(=O)Nc2ccc3c(c2)OCCO3)n1` [Compound 292]: the half-inhibitory concentration (IC50) was < 1 µM.
With `CNCCCN(C)c1cc(C)nc(NC(=O)Nc2ccc(C(F)(F)F)cc2)n1` [Compound 205], the IC50 was in the range of 1 to 10 µM.
The molecule `Cc1cc(NCCCc2ccccn2)nc(NC(=O)Nc2ccc(Cl)c(Cl)c2)n1` [Compound 21] showed an IC50 of 1 to 10 µM.
`CNCCNc1cc(C)nc(NC(=O)Nc2ccc(Cl)c(Cl)c2)n1` [Compound 28]: the IC50 was < 1 µM.
On to `Cc1cc(NCCN(C)C)nc(NC(=O)Nc2ccc(Cl)c(C(F)(F)F)c2)n1` [Compound 48], for which the IC50 fell in the range of 1 to 10 µM.
To `CCNc1cc(C)nc(NC(=O)Nc2ccc3c(c2)OCCO3)n1` [Compound 295] belongs < 1 µM; to `Cc1cc(NCC(C)O)nc(NC(=O)Nc2ccccc2)n1` (stereo not drawn) [Compound 77], 1 to 10 µM; to `CC(=O)NCCNc1cc(C)nc(NC(=O)Nc2cccc(C(F)(F)F)c2)n1` [Compound 277], 1 to 10 µM.
As for `Cc1ccc(NC(=O)Nc2nc(C)cc(NCC(O)CO)n2)cc1` (stereo not drawn) [Compound 246], the IC50 is < 1 µM.
With `CCCNc1cc(C)nc(NC(=O)Nc2ccc(C)c(C)c2)n1` [Compound 261], the half-inhibitory concentration (IC50) was < 1 µM.
With `Cc1ccc(NC(=O)Nc2nc(C)cc(NCCO)n2)cc1` [Compound 240] the figure was < 1 µM; with `Cc1cc(NCCOCCO)nc(NC(=O)Nc2ccc(F)c(C(F)(F)F)c2)n1` [Compound 107], < 1 µM; with `Cc1cc(NCC(O)CO)nc(NC(=O)Nc2ccc(F)c(C(F)(F)F)c2)n1` (stereo not drawn) [Compound 108], < 1 µM.
Take `Cc1cc(NCCNS(C)(=O)=O)nc(NC(=O)Nc2ccc(OC(F)(F)F)cc2)n1` [Compound 279]: the IC50 was < 1 µM.
Turning to `Cc1cc(NCCCN(C)C)nc(NC(=O)Nc2cccc(C(F)(F)F)c2)n1` [Compound 180, 1-(4-((3-(dimethylamino)propyl)amino)-6-methylpyrimidin-2-yl)-3-(3-(trifluoromethyl)phenyl)urea], the IC50 was < 1 µM.
To `COc1cccc(NC(=O)Nc2nc(C)cc(NCCCCO)n2)c1` [Compound 146] belongs 1 to 10 µM.
As to `CNCCNc1cc(C)nc(NC(=O)Nc2cccc(C)c2)n1` [Compound 229, 1-(4-methyl-6-((2-(methylamino)ethyl)amino)pyrimidin-2-yl)-3-(m-tolyl)urea], the IC50 was 1 to 10 µM.
Take `CNCCCCNc1cc(C)nc(NC(=O)Nc2cccc(C)c2)n1` [Compound 231]: the 50% inhibitory concentration (IC50) lay in the range of 1 to 10 µM.
`Cc1ccc(NC(=O)Nc2nc(C)cc(NCC3CCCNC3)n2)cc1` (stereo not drawn) [Compound 249, 1-(4-methyl-6-((piperidin-3-ylmethyl)amino)pyrimidin-2-yl)-3-(p-tolyl)urea] displayed a half-maximal inhibitory concentration (IC50) of 1 to 10 µM.
As for `CC(=O)NCCCNc1cc(C)nc(NC(=O)Nc2ccc3c(c2)OCO3)n1` [Compound 305, N-(3-((2-(3-(benzo[d][1,3]dioxol-5-yl)ureido)-6-methylpyrimidin-4-yl)amino)propyl)acetamide], the IC50 is < 1 µM.
For `Cc1cc(NCCCO)nc(NC(=O)Nc2ccc(OC(F)(F)F)cc2)n1` [Compound 86, 1-(4-((3-hydroxypropyl)amino)-6-methylpyrimidin-2-yl)-3-(4-(trifluoromethoxy)phenyl)urea], the IC50 was < 1 µM.
Take `COc1ccc(NC(=O)Nc2nc(C)cc(NCC(O)CO)n2)cc1` (stereo not drawn) [Compound 135]: the IC50 is < 1 µM.
Turning to `Cc1cccc(NC(=O)Nc2nc(C)cc(NCCO)n2)c1` [Compound 211], the IC50 was < 1 µM.
As for `Cc1cc(NCCCN)nc(NC(=O)Nc2ccc(C)c(C)c2)n1` [Compound 253], the concentration for half-maximal inhibition (IC50) was < 1 µM.
For the molecule `Cc1cc(NCCOCCO)nc(NC(=O)Nc2ccc(C)c(C)c2)n1` [Compound 260], the IC50 is 1 to 10 µM.
`Cc1cc(NCCN(C)C)nc(NC(=O)Nc2ccc(Cl)c(Cl)c2)n1` [Compound 11]: the half-maximal inhibitory concentration (IC50) was < 1 µM.
`CC(=O)NCCCNc1cc(C)nc(NC(=O)Nc2ccc(OC(F)(F)F)cc2)n1` [Compound 273, N-(3-((6-methyl-2-(3-(4-(trifluoromethoxy)phenyl)ureido)pyrimidin-4-yl)amino)propyl)acetamide]: the half-maximal inhibitory concentration (IC50) is < 1 µM.
To `COc1ccc(NC(=O)Nc2nc(C)cc(NCCCCO)n2)cc1` [Compound 126] belongs < 1 µM.
In the case of `Cc1cc(NCCC(N)=O)nc(NC(=O)Nc2ccc(Cl)c(C(F)(F)F)c2)n1` [Compound 60], the IC50 is < 1 µM.
Turning to `Cc1cc(NCCCN(C)C)nc(NC(=O)Nc2ccc(Cl)c(C(F)(F)F)c2)n1` [Compound 47, 1-(2-{3-[4-chloro-3-(trifluoromethyl)phenyl]ureido}-6-methyl-4-pyrimidinylamino)-3-(dimethylamino)propane], the IC50 was < 1 µM.
`Cc1cccc(NC(=O)Nc2nc(C)cc(NCC3CCCNC3)n2)c1` (stereo not drawn) [Compound 232]: the IC50 was < 1 µM.
As to `Cc1cc(NCC(O)CO)nc(NC(=O)Nc2ccc(Cl)c(C(F)(F)F)c2)n1` (stereo not drawn) [Compound 52], the IC50 was < 1 µM.
To `Cc1cc(NCC(C)O)nc(NC(=O)Nc2ccc(OC(F)(F)F)cc2)n1` (stereo not drawn) [Compound 95] belongs < 1 µM; to `Cc1cc(NCCN(C)C)nc(NC(=O)Nc2ccc3c(c2)OCO3)n1` [Compound 284], 1 to 10 µM.
As for `CC(=O)NCCNc1cc(C)nc(NC(=O)Nc2ccc3c(c2)OCO3)n1` [Compound 306, N-{2-[2-(3-benzo[1,3]dioxol-5-yl-ureido)-6-methyl-pyrimidin-4-ylamino]-ethyl}-acetamide], the IC50 is 1 to 10 µM.
Regarding `Cc1ccc(NC(=O)Nc2nc(C)cc(NCCCN(C)C)n2)cc1` [Compound 234, 1-(4-((3-(dimethylamino)propyl)amino)-6-methylpyrimidin-2-yl)-3-(p-tolyl)urea], the IC50 is < 1 µM.
With `COc1cccc(NC(=O)Nc2nc(C)cc(NCCCc3ncc[nH]3)n2)c1` [Compound 149] the figure was 1 to 10 µM; with `COc1ccc(NC(=O)Nc2nc(C)cc(NCCO)n2)cc1` [Compound 130], < 1 µM; with `COc1ccc(NC(=O)Nc2nc(C)cc(NCCN)n2)cc1` [Compound 127], < 1 µM.
As for `Cc1cccc(NC(=O)Nc2nc(C)cc(NCCN)n2)c1` [Compound 213], the half-inhibitory concentration (IC50) is < 1 µM.
Regarding `COc1ccc(NC(=O)Nc2nc(C)cc(NCCN(C)C)n2)cc1` [Compound 138], the IC50 was < 1 µM.
To `Cc1cc(NCCN)nc(NC(=O)Nc2ccc3c(c2)OCO3)n1` [Compound 283] belongs < 1 µM; to `Cc1cc(NC2CCNC2)nc(NC(=O)Nc2ccc(F)c(C(F)(F)F)c2)n1` (stereo not drawn) [Compound 123], < 1 µM; to `COc1ccc(NC(=O)Nc2nc(C)cc(NCC(C)O)n2)cc1` (stereo not drawn) [Compound 133], < 1 µM.
`Cc1cc(NCC(C)O)nc(NC(=O)Nc2ccc(Cl)c(C(F)(F)F)c2)n1` (stereo not drawn) [Compound 54]: the concentration for half-maximal inhibition (IC50) was < 1 µM.
